Test results as given in ChEMBL document CHEMBL4033775, “Natural-Products-Inspired Use of the gem-Dimethyl Group in Medicinal Chemistry” (J Med Chem, 2018).
Values after ≈ are worked out from the molar mass of the structure shown.

Columns and labels:
[1] = system: Rattus norvegicus; assay: Anti-hypertensive activity in conscious spontaneously hypertensive Okamoto rat assessed as reduction in systolic blood pressure at 0.3 mg/kg, po measured up to 6 hrs post dose relative to control; assay type: functional; set-up: scale not given: the % may be the effect or the level left
[2] = system: Rattus norvegicus; assay: Anti-hypertensive activity in conscious spontaneously hypertensive Okamoto rat assessed as reduction in systolic blood pressure at 1 mg/kg, po measured up to 6 hrs post dose relative to control; assay type: functional; set-up: scale not given: the % may be the effect or the level left
[3] = system: Rattus norvegicus; assay: Anti-hypertensive activity in conscious spontaneously hypertensive Okamoto rat assessed as reduction in systolic blood pressure at 0.1 mg/kg, po measured up to 6 hrs post dose relative to control; assay type: functional; set-up: scale not given: the % may be the effect or the level left
[4] = system: Clostridioides difficile; assay: Antibacterial activity against Clostridium difficile; assay type: functional
[5] = target: Sodium/hydrogen exchanger 1 (Homo sapiens, UniProt P19634); assay: Inhibition of human NHE1 by cell based assay
[6] = Clearance in po dosed rat; assay type: ADME, organism-based; conditions: in vivo
[7] = Half life in po dosed rat; assay type: ADME, organism-based; conditions: in vivo
[8] = system: Human immunodeficiency virus 1; assay: Antiviral activity against HIV1 3B infected in human H9 cells after 4 days by ELISA; assay type: functional, cell-based; conditions: Human immunodeficiency virus 1, 3B, H9, 96 h
[9] = system: 1A9; assay: Cytotoxicity against human 1A9 cells; assay type: functional, cell-based
[10] = target: Retinoic acid receptor RXR-beta (Homo sapiens, UniProt P28702); assay: Agonist activity at RXRbeta (unknown origin)
[11] = target: Retinoic acid receptor RXR-gamma (Homo sapiens, UniProt P48443); assay: Agonist activity at RXRgamma (unknown origin)
[12] = target: Retinoic acid receptor alpha (Homo sapiens, UniProt P10276); assay: Agonist activity at RARaplha (unknown origin)
[13] = target: Retinoic acid receptor beta (Homo sapiens, UniProt P10826); assay: Agonist activity at RARbeta (unknown origin)
[14] = target: Retinoic acid receptor gamma (Homo sapiens, UniProt P13631); assay: Agonist activity at RARgamma (unknown origin)
[15] = target: Insulin-like growth factor 1 receptor (Homo sapiens, UniProt P08069); assay: Antagonist activity at human GST-tagged IGF-1R (950 to […] residues) expressed in baculovirus after 5 mins in presence of [gamma33P]-ATP by top count method
[16] = Inhibition of bacterial DNA gyrase subunit B; set-up: species or system Bacteria
[17] = system: Human immunodeficiency virus 1; assay: Antiviral activity against HIV1; assay type: functional
[18] = system: Enterococcus faecalis; assay: Antibacterial activity against Enterococcus faecalis; assay type: functional
[19] = system: Staphylococcus aureus; assay: Antibacterial activity against methicillin-resistant Staphylococcus aureus; assay type: functional
[20] = system: Rattus norvegicus; assay: Anti-hypertensive activity in conscious spontaneously hypertensive Okamoto rat assessed as reduction in systolic blood pressure at 10 mg/kg, po measured up to 6 hrs post dose relative to control; assay type: functional; set-up: scale not given: the % may be the effect or the level left
[21] = system: Trypanosoma brucei brucei; assay: Antitrypanosomal activity against Trypanosoma brucei brucei after 72 hrs by resazurin-based fluorescence assay; assay type: functional
[22] = target: Prothrombin (Homo sapiens, UniProt P00734); assay: Inhibition of human plasma thrombin using chromogenix AB as substrate after 30 secs by UV-spectrophotometry
[23] = target: Prothrombin (Bos taurus, UniProt P00735); assay: Inhibition of bovine plasma thrombin using chromogenix AB as substrate after 30 secs by UV-spectrophotometry
[24] = target: D(2) dopamine receptor (Homo sapiens, UniProt P14416); assay: Displacement of [3H]methylspiperone from human D2 receptor expressed in HEK cells; assay type: cell-based
[25] = target: 5-hydroxytryptamine receptor 2A (Homo sapiens, UniProt P28223)
[26] = target: 5-hydroxytryptamine receptor 2C (Homo sapiens, UniProt P28335); assay: Agonist activity at human 5-HT2C receptor expressed in mouse NIH/3T3 cells assessed as induction of IP3 formation after 0.5 hrs; assay type: functional, cell-based
Chain of 5-hydroxytryptamine receptor 2C (P28335 whole entry): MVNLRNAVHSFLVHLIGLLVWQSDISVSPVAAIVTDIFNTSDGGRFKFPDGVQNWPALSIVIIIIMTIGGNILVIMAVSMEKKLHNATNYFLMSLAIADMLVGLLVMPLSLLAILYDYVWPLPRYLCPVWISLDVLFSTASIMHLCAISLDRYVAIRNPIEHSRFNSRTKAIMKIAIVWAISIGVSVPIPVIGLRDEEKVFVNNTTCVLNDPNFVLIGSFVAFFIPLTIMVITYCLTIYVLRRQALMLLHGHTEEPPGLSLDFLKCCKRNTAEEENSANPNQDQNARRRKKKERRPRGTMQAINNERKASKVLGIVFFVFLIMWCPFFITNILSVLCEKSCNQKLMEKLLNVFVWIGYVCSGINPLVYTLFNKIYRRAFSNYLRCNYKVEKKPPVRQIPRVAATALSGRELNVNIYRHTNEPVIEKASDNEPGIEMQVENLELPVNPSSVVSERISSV

Chain of 5-hydroxytryptamine receptor 2A (P28223 whole entry): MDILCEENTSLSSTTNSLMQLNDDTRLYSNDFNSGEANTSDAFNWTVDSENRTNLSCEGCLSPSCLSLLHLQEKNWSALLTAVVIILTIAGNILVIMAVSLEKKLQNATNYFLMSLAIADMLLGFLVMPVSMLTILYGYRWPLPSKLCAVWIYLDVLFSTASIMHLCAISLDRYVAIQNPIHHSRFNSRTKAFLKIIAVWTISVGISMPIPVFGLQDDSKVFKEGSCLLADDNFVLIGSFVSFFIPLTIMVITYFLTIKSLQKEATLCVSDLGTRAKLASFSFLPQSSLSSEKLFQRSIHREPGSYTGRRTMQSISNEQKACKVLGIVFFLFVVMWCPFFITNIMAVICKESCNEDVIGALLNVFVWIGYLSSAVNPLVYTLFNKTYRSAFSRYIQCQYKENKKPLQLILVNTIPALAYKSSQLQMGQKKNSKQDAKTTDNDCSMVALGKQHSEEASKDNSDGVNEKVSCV
Chain of Retinoic acid receptor RXR-gamma (P48443 whole entry): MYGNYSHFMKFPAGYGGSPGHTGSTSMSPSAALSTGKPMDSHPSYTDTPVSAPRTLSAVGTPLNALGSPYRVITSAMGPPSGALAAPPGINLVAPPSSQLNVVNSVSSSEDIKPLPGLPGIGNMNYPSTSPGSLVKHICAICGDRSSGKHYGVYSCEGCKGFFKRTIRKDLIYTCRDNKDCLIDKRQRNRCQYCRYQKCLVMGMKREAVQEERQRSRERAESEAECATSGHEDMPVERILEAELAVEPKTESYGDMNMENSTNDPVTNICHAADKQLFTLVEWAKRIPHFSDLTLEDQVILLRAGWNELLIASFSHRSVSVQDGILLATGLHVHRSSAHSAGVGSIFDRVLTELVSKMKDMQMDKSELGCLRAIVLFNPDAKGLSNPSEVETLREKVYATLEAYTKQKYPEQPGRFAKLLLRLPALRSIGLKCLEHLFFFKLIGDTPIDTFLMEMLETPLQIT
Chain of Insulin-like growth factor 1 receptor (P08069 31-736 limits assumed): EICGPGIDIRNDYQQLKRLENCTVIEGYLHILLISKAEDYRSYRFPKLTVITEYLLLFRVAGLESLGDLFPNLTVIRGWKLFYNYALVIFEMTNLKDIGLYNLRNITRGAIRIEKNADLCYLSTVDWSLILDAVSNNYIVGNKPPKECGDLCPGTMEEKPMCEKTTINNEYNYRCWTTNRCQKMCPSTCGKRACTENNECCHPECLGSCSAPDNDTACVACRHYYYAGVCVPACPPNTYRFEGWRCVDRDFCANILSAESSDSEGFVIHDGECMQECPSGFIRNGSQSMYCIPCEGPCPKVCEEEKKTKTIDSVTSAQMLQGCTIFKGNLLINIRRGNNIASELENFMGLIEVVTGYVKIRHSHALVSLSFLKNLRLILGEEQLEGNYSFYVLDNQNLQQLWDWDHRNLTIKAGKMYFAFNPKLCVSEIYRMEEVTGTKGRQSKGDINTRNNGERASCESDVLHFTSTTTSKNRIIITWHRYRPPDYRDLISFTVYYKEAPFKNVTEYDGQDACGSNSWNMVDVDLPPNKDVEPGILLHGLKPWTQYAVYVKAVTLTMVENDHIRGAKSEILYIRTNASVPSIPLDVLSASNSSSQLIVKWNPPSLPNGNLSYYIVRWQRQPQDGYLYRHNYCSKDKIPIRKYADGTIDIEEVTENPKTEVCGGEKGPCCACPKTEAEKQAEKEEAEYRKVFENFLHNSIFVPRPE
Chain of Insulin-like growth factor 1 receptor (P08069 741-1367 limits assumed): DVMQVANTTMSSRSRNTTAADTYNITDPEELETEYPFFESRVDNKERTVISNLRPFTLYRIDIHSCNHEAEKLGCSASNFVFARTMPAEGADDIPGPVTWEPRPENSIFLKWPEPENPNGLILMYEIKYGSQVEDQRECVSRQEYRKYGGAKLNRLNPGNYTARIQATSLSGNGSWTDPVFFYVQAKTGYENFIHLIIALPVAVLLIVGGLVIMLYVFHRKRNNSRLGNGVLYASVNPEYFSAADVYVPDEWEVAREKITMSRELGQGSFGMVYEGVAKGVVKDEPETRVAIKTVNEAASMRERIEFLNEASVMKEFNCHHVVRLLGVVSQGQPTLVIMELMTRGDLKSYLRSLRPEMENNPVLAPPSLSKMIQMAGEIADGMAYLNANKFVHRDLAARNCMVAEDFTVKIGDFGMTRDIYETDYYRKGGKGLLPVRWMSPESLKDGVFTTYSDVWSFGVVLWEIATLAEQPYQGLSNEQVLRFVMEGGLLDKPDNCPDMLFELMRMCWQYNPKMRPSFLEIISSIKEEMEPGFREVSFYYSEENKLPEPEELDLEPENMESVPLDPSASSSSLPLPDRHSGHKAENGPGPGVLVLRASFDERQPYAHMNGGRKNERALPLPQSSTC
Chain of Retinoic acid receptor gamma (P13631 whole entry): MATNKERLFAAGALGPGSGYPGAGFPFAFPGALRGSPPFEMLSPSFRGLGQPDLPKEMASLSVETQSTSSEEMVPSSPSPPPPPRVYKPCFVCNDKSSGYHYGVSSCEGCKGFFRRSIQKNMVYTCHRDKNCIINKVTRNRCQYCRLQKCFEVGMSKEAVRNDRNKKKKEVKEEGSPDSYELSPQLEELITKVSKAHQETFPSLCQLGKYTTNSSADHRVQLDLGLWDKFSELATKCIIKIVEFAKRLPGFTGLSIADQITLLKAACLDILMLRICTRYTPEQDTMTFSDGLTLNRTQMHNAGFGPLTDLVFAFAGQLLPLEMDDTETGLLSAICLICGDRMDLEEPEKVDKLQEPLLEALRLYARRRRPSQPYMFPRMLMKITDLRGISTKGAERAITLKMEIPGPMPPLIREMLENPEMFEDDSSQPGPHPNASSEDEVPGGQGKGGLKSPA
Chain of D(2) dopamine receptor (P14416 whole entry): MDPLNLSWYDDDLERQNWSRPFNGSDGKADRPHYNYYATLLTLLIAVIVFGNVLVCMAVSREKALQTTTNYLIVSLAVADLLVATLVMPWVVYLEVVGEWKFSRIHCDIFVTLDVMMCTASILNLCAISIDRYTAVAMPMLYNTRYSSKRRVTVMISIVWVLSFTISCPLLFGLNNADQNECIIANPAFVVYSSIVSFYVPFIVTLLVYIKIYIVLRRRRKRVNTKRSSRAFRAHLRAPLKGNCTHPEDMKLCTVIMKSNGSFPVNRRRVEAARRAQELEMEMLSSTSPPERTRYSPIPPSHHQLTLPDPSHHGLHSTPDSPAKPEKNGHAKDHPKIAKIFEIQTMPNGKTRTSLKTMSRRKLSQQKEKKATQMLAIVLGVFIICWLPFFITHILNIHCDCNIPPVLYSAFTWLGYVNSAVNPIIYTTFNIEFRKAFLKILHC
Chain of Retinoic acid receptor beta (P10826 whole entry): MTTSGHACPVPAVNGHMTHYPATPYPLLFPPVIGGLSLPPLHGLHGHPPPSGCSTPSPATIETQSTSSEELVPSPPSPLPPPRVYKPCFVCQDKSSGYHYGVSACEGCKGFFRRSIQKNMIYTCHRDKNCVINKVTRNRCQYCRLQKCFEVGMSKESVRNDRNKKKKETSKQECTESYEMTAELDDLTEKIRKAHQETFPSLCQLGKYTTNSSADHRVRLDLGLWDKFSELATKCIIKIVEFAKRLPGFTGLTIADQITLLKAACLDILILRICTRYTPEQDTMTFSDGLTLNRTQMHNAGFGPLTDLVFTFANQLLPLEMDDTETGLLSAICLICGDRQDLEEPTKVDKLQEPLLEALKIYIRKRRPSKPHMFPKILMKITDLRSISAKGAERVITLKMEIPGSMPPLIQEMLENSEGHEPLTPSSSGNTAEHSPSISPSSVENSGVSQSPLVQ
Chain of Retinoic acid receptor alpha (P10276 whole entry): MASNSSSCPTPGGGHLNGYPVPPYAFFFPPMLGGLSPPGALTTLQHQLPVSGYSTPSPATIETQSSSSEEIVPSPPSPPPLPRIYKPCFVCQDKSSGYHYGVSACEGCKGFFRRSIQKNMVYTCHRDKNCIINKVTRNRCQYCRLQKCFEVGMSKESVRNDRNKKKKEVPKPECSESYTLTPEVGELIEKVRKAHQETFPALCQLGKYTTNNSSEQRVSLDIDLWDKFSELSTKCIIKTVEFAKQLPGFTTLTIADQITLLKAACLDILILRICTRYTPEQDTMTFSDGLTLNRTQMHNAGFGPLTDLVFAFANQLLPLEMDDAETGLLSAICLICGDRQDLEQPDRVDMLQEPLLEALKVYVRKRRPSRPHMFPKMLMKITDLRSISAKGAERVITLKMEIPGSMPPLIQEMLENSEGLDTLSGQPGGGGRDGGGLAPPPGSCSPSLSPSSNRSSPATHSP

## CC1(C)Oc2ccc(C#N)cc2C(N2CCCC2=O)C1O (racemic) [CROMAKALIM]
[1]
  Activity: 39%
[2]
  Activity: 47%
[3]
  Activity: 13%

## CC1(C)Oc2ccc(C#N)cc2C(N2CCCC2=O)C1O (stereo in doubt; 110) [CROMAKALIM]
[1]
  Activity: 47%
[3]
  Activity: 31%

## CCc1c(Cl)c(O)c(Cl)c(O)c1C(=O)O[C@H]1[C@H](O)[C@H](OC)[C@H](OC/C2=C\C=C\C[C@H](O)/C(C)=C/[C@H](CC)[C@@H](O[C@@H]3OC(C)(C)[C@@H](OC(=O)C(C)C)[C@H](O)[C@@H]3O)/C(C)=C/C(C)=C/C[C@H]([C@@H](C)O)OC2=O)O[C@@H]1C
[4]
  MIC90: 0.125 to 0.25 µg/mL (≈ 0.118 to 0.236 µM)

## CC1(C)[C@H](C(=O)N=C(N)N)[C@H]1c1cccc2c1CCO2
[5]
  IC50: 10 nM
[6]
  CL/F: 74 mL/min/kg
[7]
  half-life: 3 h

## CC(=O)O[C@@H]1[C@H](OC(=O)CC(C)C)c2c(ccc3ccc(=O)oc23)OC1(C)C [SUKSDORFIN]
[8]
  IC50: 2600 nM

## C/C(=C\c1csc(C)n1)[C@@H]1C[C@@H]2O[C@]2(C)CCC[C@H](C)[C@H](O)[C@@H](C)C(=O)C(C)(C)[C@@H](O)CC(=O)O1 [PATUPILONE]
[9]
  IC50: 0.06 nM

## C=C(c1ccc(C(=O)O)cc1)c1cc2c(cc1C)CCCC2(C)C
[10]
  EC50: 2400 nM
[11]
  EC50: 2600 nM
[12]
  EC50: > 10000 nM
[13]
  EC50: > 10000 nM
[14]
  EC50: > 10000 nM

## CC(C)(Oc1cccc(-c2cn([C@H]3C[C@@H](CN4CCC4)C3)c3ncnc(N)c23)c1)[C@@H]1CCCO1
[15]
  IC50: 10 nM

## CO[C@@H]1[C@@H](OC(N)=O)[C@@H](O)[C@H](Oc2ccc3c(O)c(NC(=O)c4ccc(O)c(CC=C(C)C)c4)c(=O)oc3c2C)OC1(C)C [NOVOBIOCIN]
[16]
  IC50: 80 nM

## CCCc1cc(=O)oc2c3c(c4c(c12)OC(C)(C)C=C4)O[C@H](C)[C@@H](C)[C@@H]3O [CALANOLIDE A]
[17]
  EC50: 2.85 nM

## Cc1cc(O)cc(O)c1-c1cc(O)cc2cc3c(c(O)c12)C(=O)c1c(O)cc(O)c(Cl)c1C3(C)C
[18]
  MIC: 0.8 µg/mL (≈ 1.62 µM)
[19]
  MIC: 3.1 µg/mL (≈ 6.29 µM)

## CC1Oc2ccc([N+](=O)[O-])cc2[C@@H](N2CCCC2=O)[C@@H]1O (some centres not stated)
[20]
  Activity: 34%

## CC1(C)OB(O)c2cc(NC(=O)c3ccc(F)cc3C(F)(F)F)ccc21 [ACOZIBOROLE]
[21]
  IC50: 556 nM

## CC1CNc2c(cccc2S(=O)(=O)N[C@@H](CCCNC(=N)N)C(=O)N2CCC(CCO)CC2)C1 (mixture of isomers)
[22]
  Ki: 40 nM
[23]
  Ki: 50 nM

## CC1(C)CC(=O)N(CCCCN2CCN(c3ncccn3)CC2)C(=O)C1 [GEPIRONE]
[24]
  Ki: 4320 nM
[25]
  Ki: 3630 nM

## COc1ccc2c(c1)-c1c(cnn1C[C@H](C)N)C2(C)C
[26]
  Ki: 2.51 nM

## C=C(C)[C@@H]1CC[C@]2(C(=O)O)CC[C@]3(C)[C@H](CC[C@@H]4[C@@]5(C)CC[C@H](O)C(C)(C)[C@@H]5CC[C@]43C)[C@@H]12 [BETULINIC ACID]
[17]
  EC50: 1400 nM

## N=C(N)NCCC[C@H](NS(=O)(=O)c1cccc2c1NCCC2)C(=O)N1CCC(CCO)CC1
[23]
  Ki: 500 nM

## CO[C@@H]1[C@@H](OC(=O)c2ccc(C)[nH]2)[C@@H](O)[C@H](Oc2ccc3c(O)c(NC(=O)c4ccc(O)c(CC=C(C)C)c4)c(=O)oc3c2Cl)OC1(C)C [CHLOROBIOCIN]
[16]
  IC50: 30 nM

## O=C1CCCN1[C@@H]1c2cc([N+](=O)[O-])ccc2OC[C@H]1O
[20]
  Activity: 5%
